The source made the active and inactive calls. No cut-off for these calls is given here.
Tests used:
[1] = molecular target: T1, Induced myeloid leukemia cell differentiation protein Mcl-1 (Homo sapiens, UniProt Q07820); assay: Displacement of FAM-Bid from human Mcl-1 after 30 mins by fluorescence polarization assay
[2] = molecular target: T1, Induced myeloid leukemia cell differentiation protein Mcl-1; assay: Displacement of FAM-Bid from human Mcl-1 after 30 mins by ELISA
[3] = molecular target: T2, Apoptosis regulator Bcl-2 (Homo sapiens, UniProt P10415); assay: Displacement of FAM-Bid from human recombinant Bcl-2 after 30 mins by ELISA
MCF7 = assay: Cytotoxicity against human MCF7 cells after 24 hrs by MTT assay; format: functional, cell-based; conditions: MCF7, 24 h
SMMC-7721 [4] = assay: Cytotoxicity against human SMMC7721 cells after 24 hrs by MTT assay; format: functional, cell-based; conditions: SMMC-7721, 24 h
SMMC-7721 [5] = assay: Cytotoxicity against human SMMC7721 cells expressing high level of Mcl-1 after 24 hrs by MTT assay; format: functional, cell-based; conditions: SMMC-7721, 24 h
HEK293 = assay: Cytotoxicity against human HEK293 cells after 24 hrs by MTT assay; format: cell-based; conditions: HEK293, 24 h
[6] = molecular target: T2, Apoptosis regulator Bcl-2; assay: Displacement of FAM-Bid from human Bcl-2 after 30 mins by fluorescence polarization assay
[7] = molecular target: T3, Apoptosis regulator BAX/Induced myeloid leukemia cell differentiation protein Mcl-1 (Homo sapiens) (UniProt Q07820+Q07812); assay: Inhibition of Mcl-1/Bax interaction in human MCF7 cells at 10 uM after 3 hrs by Western blotting; format: cell-based
[8] = molecular target: T3, Apoptosis regulator BAX/Induced myeloid leukemia cell differentiation protein Mcl-1 (Homo sapiens); assay: Inhibition of Mcl-1/Bax interaction in human SMMC7721 cells at 10 uM after 3 hrs by Western blotting; format: cell-based; conditions: SMMC-7721
[9] = molecular target: T2, Apoptosis regulator Bcl-2; assay: Binding affinity to Bcl-2
[10] = molecular target: T1, Induced myeloid leukemia cell differentiation protein Mcl-1; assay: Binding affinity to Mcl-1
[11] = molecular target: T4, MCL1-BAK1 complex (Homo sapiens) (UniProt Q07820+Q16611); assay: Inhibition of Mcl-1/Bak interaction in human MCF7 cells at 10 uM after 3 hrs by Western blotting; format: cell-based
[12] = molecular target: T4, MCL1-BAK1 complex (Homo sapiens); assay: Inhibition of Mcl-1/Bak interaction in human SMMC7721 cells at 10 uM after 3 hrs by Western blotting; format: cell-based; conditions: SMMC-7721
[13] = molecular target: T4, MCL1-BAK1 complex (Homo sapiens); assay: Inhibition of Mcl-1/Bak interaction in human SMMC7721 cells expressing high level of Mcl-1 at 10 uM after 3 hrs by Western blotting; format: cell-based; conditions: SMMC-7721

T3 sequence (Q07812 whole entry, looked up): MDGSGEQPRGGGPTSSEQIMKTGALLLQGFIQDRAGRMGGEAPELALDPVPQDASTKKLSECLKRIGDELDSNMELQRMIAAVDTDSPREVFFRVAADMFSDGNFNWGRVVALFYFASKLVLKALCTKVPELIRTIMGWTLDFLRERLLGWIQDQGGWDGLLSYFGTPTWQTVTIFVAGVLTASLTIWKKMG
T3 sequence (Q07820 whole entry, looked up): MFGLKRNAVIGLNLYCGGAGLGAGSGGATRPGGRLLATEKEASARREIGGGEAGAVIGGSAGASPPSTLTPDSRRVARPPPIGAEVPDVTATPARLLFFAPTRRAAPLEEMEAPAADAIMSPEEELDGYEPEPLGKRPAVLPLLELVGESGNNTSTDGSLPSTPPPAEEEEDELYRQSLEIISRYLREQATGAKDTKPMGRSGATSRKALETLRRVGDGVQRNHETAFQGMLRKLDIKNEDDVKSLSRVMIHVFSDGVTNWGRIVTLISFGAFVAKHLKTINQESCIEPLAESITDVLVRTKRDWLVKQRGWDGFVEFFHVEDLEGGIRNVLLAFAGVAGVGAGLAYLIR
T2 sequence (P10415 whole entry): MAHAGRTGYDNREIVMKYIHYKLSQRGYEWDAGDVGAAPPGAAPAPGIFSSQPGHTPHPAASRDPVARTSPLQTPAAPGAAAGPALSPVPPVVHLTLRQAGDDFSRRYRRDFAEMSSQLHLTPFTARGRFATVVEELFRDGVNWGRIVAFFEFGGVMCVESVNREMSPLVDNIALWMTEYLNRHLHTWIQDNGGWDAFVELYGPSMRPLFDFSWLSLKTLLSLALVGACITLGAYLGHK
T1 sequence (Q07820 whole entry): as the sequence (Q07820 whole entry, looked up) above

Ki [1] [nM] | SMILES | IC50 (MCF7) [nM] | IC50 (SMMC-7721 [4]) [nM] | IC50 (SMMC-7721 [5]) [nM] | IC50 (HEK293) [nM] | further results
62 | N#CC1=C2C(=NC1=O)c1cccc3c(N4CCSCC4)ccc2c13 | 90 | 170 | 190 | > 100000 | IC50 [2]: 35 nM; IC50 [3]: 285 nM; Ki [6]: 319 nM; Activity [7]: Active; Activity [8]: Active; Ki [9]: 310 nM; Ki [10]: 58 nM
151 | COc1ccc(Sc2ccc3c4c(cccc24)C2=NC(=O)C(C#N)=C23)cc1 |  |  |  |  | 
967 | CCC(C)(C)c1ccc(Oc2ccc3c4c(cccc24)C2=NC(=O)C(C#N)=C23)cc1 |  |  |  |  | 
 | N#CC1=C2C(=NC1=O)c1cccc3c(Sc4ccccc4)ccc2c13 | > 50000 | > 50000 | > 50000 | > 50000 | Activity [11]: inactive; Activity [12]: inactive
961 | CCC(C)(C)c1ccc(Sc2ccc3c4c(cccc24)C2=NC(=O)C(C#N)=C23)cc1 | 21300 | 11900 | 25600 | > 50000 | IC50 [2]: 585 nM; IC50 [3]: 342 nM
258 | COc1ccc(Oc2ccc3c4c(cccc24)C2=NC(=O)C(C#N)=C23)cc1 |  |  |  |  | 
842 | N#CC1=C2C(=NC1=O)c1cccc3c(Sc4ccc(-c5ccccc5)cc4)ccc2c13 |  |  |  |  | 
82 | CC(C)c1ccc(Sc2ccc3c4c(cccc24)C2=NC(=O)C(C#N)=C23)cc1 |  |  |  |  | 
1510 | Cc1ccc(Sc2ccc3c4c(cccc24)C2=NC(=O)C(C#N)=C23)cc1 |  |  |  |  | 
91 | CN(C)c1ccc(Sc2ccc3c4c(cccc24)C2=NC(=O)C(C#N)=C23)cc1 |  |  |  |  | 
122 | CN(C)c1ccc(Oc2ccc3c4c(cccc24)C2=NC(=O)C(C#N)=C23)cc1 |  |  |  |  | 
99 | CC(C)c1ccc(Oc2ccc3c4c(cccc24)C2=NC(=O)C(C#N)=C23)cc1 |  |  |  |  | 
1280 | N#CC1=C2C(=NC1=O)c1cccc3c(Oc4ccc(-c5ccccc5)cc4)ccc2c13 |  |  |  |  | 
 | N#CC1=C2C(=NC1=O)c1cccc3c(Sc4ccc(N)cc4)ccc2c13 | 12 | 18 | 16 | > 50000 | IC50 [2]: 5 nM; IC50 [3]: 302 nM; Activity [11]: Active; Activity [12]: Active; Activity [13]: inactive; Activity [7]: Active; Activity [8]: Active
49 | N#CC1=C2C(=NC1=O)c1cccc3c(Sc4ccc(Br)cc4)ccc2c13 | 90 | 190 | 180 | > 50000 | Ki [6]: 382 nM; Activity [7]: Active; Activity [8]: Active
1920 | Cc1ccc(Oc2ccc3c4c(cccc24)C2=NC(=O)C(C#N)=C23)cc1 |  |  |  |  | 

Source: ChEMBL document CHEMBL1671783, “3-Thiomorpholin-8-oxo-8H-acenaphtho[1,2-b]pyrrole-9-carbonitrile (S1) based molecules as potent, dual inhibitors of B-cell lymphoma 2 (Bcl-2) and myeloid cell leukemia sequence 1 (Mcl-1): structure-based design and structure-activity relationship studies” (J Med Chem, 2011)
